{"source": "patent US10933063B2", "about": "(priority 2017, dated 2021)", "data": [{"biological_target": "BTK (Homo sapiens (Human), UniProt Q06187)", "sequence (Q06187 whole entry, looked up, species assumed)": "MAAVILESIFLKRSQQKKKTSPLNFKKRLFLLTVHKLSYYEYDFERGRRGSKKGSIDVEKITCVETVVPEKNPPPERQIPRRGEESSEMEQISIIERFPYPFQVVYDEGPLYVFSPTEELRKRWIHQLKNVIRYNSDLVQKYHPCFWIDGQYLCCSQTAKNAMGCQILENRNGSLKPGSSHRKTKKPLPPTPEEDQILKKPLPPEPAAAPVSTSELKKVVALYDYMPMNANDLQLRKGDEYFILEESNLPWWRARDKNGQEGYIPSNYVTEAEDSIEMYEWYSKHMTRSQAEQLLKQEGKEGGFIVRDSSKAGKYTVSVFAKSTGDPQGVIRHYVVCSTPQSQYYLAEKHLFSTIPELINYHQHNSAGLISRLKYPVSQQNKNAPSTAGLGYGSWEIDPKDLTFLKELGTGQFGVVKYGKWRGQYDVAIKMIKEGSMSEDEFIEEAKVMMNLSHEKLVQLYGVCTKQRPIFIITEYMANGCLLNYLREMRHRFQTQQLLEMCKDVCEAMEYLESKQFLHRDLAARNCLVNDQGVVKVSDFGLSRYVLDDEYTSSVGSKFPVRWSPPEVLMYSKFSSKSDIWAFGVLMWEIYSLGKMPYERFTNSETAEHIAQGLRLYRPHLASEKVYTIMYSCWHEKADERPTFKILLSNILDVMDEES", "test": "biochemical", "units": {"IC50": "nM"}, "procedure": "Btk kinase activity was determined using a homogenous time resolved fluorescence (HTRF) methodology. Measurements were performed in a reaction volume of 15 μL using 384-well assay plates. Kinase enzyme, inhibitor, ATP and 1 μM peptide substrate were incubated in a reaction buffer compose of Hepes50 mM (pH7.0), NaN3 0.02%, BSA 0.01%, Orthocanadate 0.1 mM. […] For each compound, enzyme activity as measured at various concentrations of compound, Negative control reactions were performed in the absence of inhibitor in two replicates and eight no enzyme controls were used to determine baseline fluorescence levels.", "values": [{"smiles": "CC#CC(=O)N1CCC[C@H]1c1nc(-c2ccc(C(=O)Nc3ccccn3)cc2)c2cnccn12", "note": "[Example 166, (S)-4-(3-(1-(but-2-ynoyl)pyrrolidin-2-yl)imidazo[1,5-a]pyrazin-1-yl)-N-(pyridin-2-yl) benzamide]", "IC50": "1000 to 10000"}, {"smiles": "C=CC(=O)N1CC[C@@H](c2nc(-c3ccc(C(=O)Nc4cc(C(F)(F)F)ccn4)cc3)c3cnccn23)C1", "note": "[Example 195, (R)-4-(3-(1-acryloylpyrrolidin-3-yl)imidazo[1,5-a]pyrazin-1-yl)-N-(4-(trifluoromethyl)pyridin-2-yl)benzamide]", "IC50": "10 to 100"}, {"smiles": "C=CC(=O)N1CCCC[C@H]1c1nc(-c2ccc(Oc3cccc(OC)c3)cc2)c2cnccn12", "note": "[Example 58, (S)-1-(2-(1-(4-(3-methoxyphenoxy)phenyl)imidazo[1,5-a]pyrazin-3-yl)piperidin-1-yl)prop-2-en-1-one]", "IC50": "10 to 100"}, {"smiles": "C=CC(=O)N1CCC[C@H]1c1nc(-c2ccc(Oc3ccc(OC)cc3)cc2)c2cnccn12", "note": "[Example 9, (S)-1-(2-(1-(4-(4-methoxyphenoxy)phenyl)imidazo[1,5-a]pyrazin-3-yl)pyrrolidin-1-yl)prop-2-en-1-one]", "IC50": "10 to 100"}, {"smiles": "CC#CC(=O)N1CCC[C@H]1c1nc(-c2ccc(Oc3cccc(OC(C)C)c3)cc2)c2cnccn12", "note": "[Example 39, (S)-1-(2-(1-(4-(3-isopropoxyphenoxy)phenyl)imidazo[1,5-a]pyrazin-3-yl)pyrrolidin-1-yl)but-2-yn-1-one]", "IC50": "100 to 1000"}, {"smiles": "CC#CN1CCC[C@H]1c1nc(-c2ccc(C(=O)Nc3cc(C(F)(F)F)ccn3)cc2)c2c(CO)nccn12", "note": "[Example 210, (S)-4-(8-(hydroxymethyl)-3-(1-(prop-1-yn-1-yl)pyrrolidin-2-yl)imidazo [1,5-a]pyrazin-1-yl)-N-(4-(trifluoromethyl)pyridin-2-yl)benzamide]", "IC50": "100 to 1000"}, {"smiles": "C=CC(=O)N1CCC[C@@H](c2nc(-c3ccc(C(=O)Nc4ccccn4)cc3)c3cncc(C)n23)C1", "note": "[Example 178, (R)-4-(3-(1-acryloylpiperidin-3-yl)-5-methylimidazo [1,5-a]pyrazin-1-yl)-N-(pyridin-2-yl)benzamide]", "IC50": "100 to 1000"}, {"smiles": "CC#CC(=O)N1CCC[C@H]1c1nc(-c2ccc(Oc3cccc(OC)c3F)cc2)c2c(O)nccn12", "note": "[Example 35, (S)-1-(2-(1-(4-(2-fluoro-3-methoxyphenoxy)phenyl)-8-hydroxyimidazo[1,5-a]pyrazin-3-yl)pyrrolidin-1-yl)but-2-yn-1-one]", "IC50": "1000 to 10000"}, {"smiles": "CC#CC(=O)N1CC[C@@H](c2nc(-c3ccc(Oc4cccc(OC)c4F)cc3)c3c(COC(C)=O)nccn23)C1", "note": "[Example 118, (R)-(3-(1-(but-2-ynoyl)pyrrolidin-3-yl)-1-(4-(2-fluoro-3-methoxyphenoxy)phenyl)imidazo[1,5-a]pyrazin-8-yl)methyl acetate]", "IC50": "100 to 1000"}, {"smiles": "C=CC(=O)N1CC[C@@H](c2nc(-c3ccc(C(=O)Nc4ccccn4)cc3)c3cnccn23)C1", "note": "[Example 176, (R)-4-(3-(1-acryloylpyrrolidin-3-yl)imidazo[1,5-a]pyrazin-1-yl)-N-(pyridin-2-yl)benzamide]", "IC50": "10 to 100"}, {"smiles": "CC#CC(=O)N1CCC[C@H]1c1nc(-c2ccc(C(=O)Nc3cccc(OC)c3F)cc2)c2cnccn12", "note": "[Example 164, (S)-4-(3-(1-(But-2-ynoyl)pyrrolidin-2-yl)imidazo[1,5-a]pyrazin-1-yl)-N-(2-fluoro-3-methoxyphenyl)benzamide]", "IC50": "1000 to 10000"}, {"smiles": "C=CC(=O)N1CCCC[C@H]1c1nc(-c2ccc(Oc3cccc(OC)c3F)cc2)c2cncc(C)n12", "note": "[Example 78, (S)-1-(2-(1-(4-(2-fluoro-3-methoxyphenoxy)phenyl)-5-methylimidazo[1,5-a]pyrazin-3-yl)piperidin-1-yl)prop-2-en-1-one]", "IC50": "10 to 100"}, {"smiles": "CC#CC(=O)N1CCCC[C@H]1c1nc(-c2ccc(OCc3cccc(F)c3F)cc2)c2c(C)nccn12", "note": "[Example 155, (S)-1-(2-(1-(4-((2,3-difluorobenzyl)oxy)phenyl)-8-methylimidazo[1,5-a]pyrazin-3-yl)piperidin-1-yl)but-2-yn-1-one]", "IC50": "100 to 1000"}, {"smiles": "C=CC(=O)N1CCCC[C@H]1c1nc(-c2ccc(Oc3cccc(OC)c3F)cc2)c2c(C(F)(F)F)nccn12", "note": "[Example 121, (S)-1-(2-(1-(4-(2-fluoro-3-methoxyphenoxy)phenyl)-8-(trifluoromethyl)imidazo[1,5-a]pyrazin-3-yl)piperidin-1-yl)prop-2-en-1-one]", "IC50": "1000 to 10000"}, {"smiles": "COc1cccc(Oc2ccc(-c3nc([C@@H]4CCN(C(=O)/C(C#N)=C/C(C)(C)C)C4)n4ccnc(C)c34)cc2)c1F", "note": "[Example 88, (R,E)-2-(3-(1-(4-(2-fluoro-3-methoxyphenoxy)phenyl)-8-methylimidazo[1,5-a]pyrazin-3-yl)pyrrolidine-1-carbonyl)-4,4-dimethylpent-2-enenitrile]", "IC50": "10 to 100"}, {"smiles": "CC#CC(=O)N1CCCC[C@H]1c1nc(-c2ccc(Oc3cccc(OC)c3F)cc2)c2cnccn12", "note": "[Example 25, (S)-1-(2-(1-(4-(2-fluoro-3-methoxyphenoxy)phenyl)imidazo[1,5-a]pyrazin-3-yl)piperidin-1-yl)but-2-yn-1-one]", "IC50": "10 to 100"}, {"smiles": "CC#CC(=O)N1CCCC[C@H]1c1nc(-c2ccc(Oc3cccc(OC)c3)cc2)c2c(C)nccn12", "note": "[Example 49, (S)-1-(2-(1-(4-(3-methoxyphenoxy)phenyl)-8-methylimidazo[1,5-a]pyrazin-3-yl)piperidin-1-yl)but-2-yn-1-one]", "IC50": "10 to 100"}, {"smiles": "CC#CC(=O)N1CCCC[C@H]1c1nc(-c2ccc(Oc3cccc(Cl)c3F)cc2)c2cnccn12", "note": "[Example 47, (S)-1-(2-(1-(4-(3-chloro-2-fluorophenoxy)phenyl)imidazo[1,5-a]pyrazin-3-yl)piperidin-1-yl)but-2-yn-1-one]", "IC50": "100 to 1000"}, {"smiles": "C=CC(=O)N1CCC[C@@H](c2nc(-c3ccc(Oc4cccc(OC)c4F)cc3)c3c(C)ncc(C)n23)C1", "note": "[Example 76, (R)-1-(3-(1-(4-(2-fluoro-3-methoxyphenoxy)phenyl)-5,8-dimethylimidazo[1,5-a]pyrazin-3-yl)piperidin-1-yl)prop-2-en-1-one]", "IC50": "10 to 100"}, {"smiles": "CC#CC(=O)N1CCCC[C@H]1c1nc(-c2ccc(C(=O)Nc3ccccn3)cc2)c2c(C)ncc(C)n12", "note": "[Example 189, (S)-4-(3-(1-(but-2-ynoyl)piperidin-2-yl)-5,8-dimethylimidazo[1,5-a]pyrazin-1-yl)-N-(pyridin-2-yl)benzamide]", "IC50": "100 to 1000"}, {"smiles": "CC#CC(=O)N1CCCC[C@H]1c1nc(-c2ccc(Oc3cccc(OC)c3F)cc2)c2c(C)ncc(C)n12", "note": "[Example 81, (S)-1-(2-(1-(4-(2-fluoro-3-methoxyphenoxy)phenyl)-5,8-dimethylimidazo[1,5-a]pyrazin-3-yl)piperidin-1-yl)but-2-yn-1-one]", "IC50": "100 to 1000"}, {"smiles": "C=CC(=O)N1CCC[C@H]1c1nc(-c2ccc(C(=O)Nc3ccccn3)cc2)c2cncc(C)n12", "note": "[Example 172, (S)-4-(3-(1-aeryloylpyrrolidin-2-yl)-5-methylimidazo [1,5-a]pyrazin-l-yl)-N-(pyridin-2-yl)benzamide]", "IC50": "10 to 100"}, {"smiles": "CC#CC(=O)N1CCCC[C@H]1c1nc(-c2ccc(OCc3cccc(F)c3)cc2)c2c(C)nccn12", "note": "[Example 140, (S)-1-(2-(1-(4-((3-fluorobenzyl)oxy)phenyl)-8-methylimidazo[1,5-a]pyrazin-3-yl)piperidin-1-yl)but-2-yn-1-one]", "IC50": "100 to 1000"}, {"smiles": "C=CC(=O)N1CCC[C@H]1c1nc(-c2ccc(Oc3cccc(OC)c3F)cc2)c2c(O)nccn12", "note": "[Example 36, (S)-1-(2-(1-(4-(2-fluoro-3-methoxyphenoxy)phenyl)-8-hydroxyimidazo[1,5-a]pyrazin-3-yl)pyrrolidin-1-yl)prop-2-en-1-one]", "IC50": "10 to 100"}, {"smiles": "C=CC(=O)N1CCC[C@H]1c1nc(-c2ccc(OCc3cccc(Cl)c3)cc2)c2cnccn12", "note": "[Example 141, (S)-1-(2-(1-(4-((3-chlorobenzyl)oxy)phenyl)imidazo[1,5-a]pyrazin-3-yl)pyrrolidin-1-yl)prop-2-en-1-one]", "IC50": "10 to 100"}, {"smiles": "C=CC(=O)N1CCCC[C@H]1c1nc(-c2ccc(COc3ccc(F)c(F)c3)cc2)c2c(C)nccn12", "note": "[Example 150, (S)-1-(2-(1-(4-((3,4-difluorophenoxy)methyl)phenyl)-8-methylimidazo[1,5-a]pyrazin-3-yl)piperidin-1-yl)prop-2-en-1-one]", "IC50": "10 to 100"}, {"smiles": "CC#CC(=O)N1CCC[C@H]1c1nc(-c2ccc(COc3ccccc3F)cc2)c2cnccn12", "note": "[Example 146, (S)-1-(2-(1-(4-((2-fluorophenoxy)methyl)phenyl)imidazo[1,5-a]pyrazin-3-yl)pyrrolidin-1-yl)but-2-yn-1-one]", "IC50": "1000 to 10000"}, {"smiles": "C=CC(=O)N1CCC[C@H]1c1nc(-c2ccc(OCc3cccc(F)c3F)cc2)c2cnccn12", "note": "[Example 124, (S)-1-(2-(1-(4-((2,3-Difluorobenzyl)oxy)phenyl)imidazo[1,5-a]pyrazin-3-yl)pyrrolidin-1-yl)prop-2-en-1-one]", "IC50": "10 to 100"}, {"smiles": "C=CC(=O)N1CCCC[C@H]1c1nc(-c2ccc(COc3cccc(F)c3)cc2)c2c(C)nccn12", "note": "[Example 156, (S)-1-(2-(1-(4-((3-fluorophenoxy)methyl)phenyl)-8-methylimidazo[1,5-a]pyrazin-3-yl)piperidin-1-yl)prop-2-en-1-one]", "IC50": "10 to 100"}, {"smiles": "C=CC(=O)N1CCC[C@@H](c2nc(-c3ccc(Oc4cccc(OC)c4F)cc3)c3cncc(C)n23)C1", "note": "[Example 70, (R)-1-(3-(1-(4-(2-fluoro-3-methoxyphenoxy)phenyl)-5-methylimidazo[1,5-a]pyrazin-3-yl)piperidin-1-yl)prop-2-en-1-one]", "IC50": "10 to 100"}, {"smiles": "CC#CC(=O)N1CCC[C@H]1c1nc(-c2ccc(C(=O)Nc3ccccn3)cc2)c2c(C)ncc(C)n12", "note": "[Example 175, (S)-4-(3-(1-(but-2-ynoyl)pyrrolidin-2-yl)-5,8-dimethylimidazo[1,5-a]pyrazin-1-yl)-N-(pyridin-2-yl)benzamide]", "IC50": "100 to 1000"}, {"smiles": "COc1cccc(Oc2ccc(-c3nc([C@@H]4CCCN4C(=O)C(N)=O)n4ccncc34)cc2)c1F", "note": "[Example 33]", "IC50": "1000 to 10000"}, {"smiles": "C=CC(=O)N1CCC[C@H]1c1nc(-c2ccc(COc3ccc(F)cc3)cc2)c2cnccn12", "note": "[Example 126, (S)-1-(2-(1-(4-((4-fluorophenoxy)methyl)phenyl)imidazo[1,5-a]pyrazin-3-yl)pyrrolidin-1-yl)prop-2-en-1-one]", "IC50": "10 to 100"}]}]}
